Experimental data from patent US6548540B2, “Method of treating cancer using dithiocarbamate derivatives” (Charlotte-Mecklenburg Hospital Authority, priority 1998, dated 2003).

Experiments:
M1619 melanoma cells = assay: MTT proliferation assay, M1619 melanoma; format: cell-based, human
Procedure: (§1) Human malignant cell lines were obtained from American Type Tissue Culture Collection (Rockville, Md.). Melanoma cells lines CRL 1585 and 1619 were cultured in RPMI 1640 (GIBCO-BRL, Life Technologies, Grand Island, N.Y.) with 10% FBS and passed with nonenzymatic Cell Dissociation Solution® (Sigma). The prostate adenocarcinoma cell line CRL 1435 (PC-3) was also cultured in RPMI 1640 with 10% FBS but passed with 0.05% trypsin and 0.53 mM EDTA. The squamous lung carcinoma NCI-H520 and the adenosquamous lung carcinoma NCI-H596 cell lines were grown in RPMI 1640 supplemented with 10% FBS, 10 mM HEPES and 1.0 mM sodium pyruvate and passed with trypsin/EDTA. The small cell lung carcinoma NCI-H82 was cultured as a suspension in RPMI 1640 with 10% FBS. All of the above were grown in a 37° C. humidified environment containing 5% CO2/air. The breast carcinoma cell line MDA-MB-453 was grown in a 37° C. humidified environment with free gas exchange with atmospheric air using Leibovitz's L-15 medium with 2 mM L-glutamine and 10% FBS and was passed with trypsin/EDTA.
The effect of disulfiram (0.15 to 5.0 μM), diethyldithiocarbamate (DDC, 1.0 μM) or PDTC (0.625 to 5.0 μM) on proliferation of malignant cell lines was studied in cultures stimulated with 10% FBS. Cell numbers were quantitated 24-72 hours later. In some experiments disulfiram or PDTC were added immediately after cells were plated. In other experiments, cells were plated and allowed to grow for 24-72 hours before fresh media with disulfiram or PDTC was added, and cell numbers were assayed 24-72 hours later.
Finally, a number of dithiocarbamate effects on cells have been attributed to increasing the intracellular levels of copper ions. To further probe the role of copper in mediating cytotoxicity from disulfiram, cells were cultured with or without addition of the impermeate Cu^2+ chelator bathocuprioinedisulfonic acid (BCPS, 100 μM) added to medium to sequester Cu^2+ in the extracellular compartment. Cells were also treated 12 hours with various concentration of disulfiram (0.625 to 5.0 μM) and intracellular copper levels were measured as outlined below.
Proliferation of cultured cells was quantitated using a previously reported calorimetric method based upon metabolic reduction of the soluble yellow tetrazolium dye 3-[4,5-dimethylthiazol]-2yl-2,5-diphenyl tetrazolium bromide (MTT) to its insoluble purple formazan by the action of mitochondrial succinyl dehydrogenase (See, e.g., S. J. Hirst, et al., “Quantifying proliferation of cultured human and rabbit airway smooth muscle in response to serum and platelet derived growth factor,” Am. J. Respir. Cell Mol. Biol. 7:574-581 (1992); R. Dashtaki, et al. R., supra; S. S. Brar, et al., “Requirement for reactive oxygen species in serum-induced and platelet-derived growth factor-induced growth of airway smooth muscle,” J. Biol. Chem. 274:20017-20026 (1999)). This assay empirically distinguishes between dead and living cells. For proliferation studies, cells were seeded into 24-well uncoated plastic plates (Costar) at 50,000 cells per well and cultured with respective media and mitogens.

[1] = tested on: Squamous lung carcinoma NCI-H520; assay: MTT proliferation assay, squamous lung carcinoma; format: cell-based; settings: Homo sapiens, treatment initially, after 48 hours, 10% FBS, read-out: Mean Percent Inhibition of Growth
Procedure: as §1
(§2) The effect of disulfiram (0.15 to 5.0 μM), diethyldithiocarbamate (DDC, 1.0 μM) or PDTC (0.625 to 5.0 μM) on proliferation of malignant cell lines was studied in cultures stimulated with 10% FBS. Cell numbers were quantitated 24-72 hours later. In some experiments disulfiram or PDTC were added immediately after cells were plated. In other experiments, cells were plated and allowed to grow for 24-72 hours before fresh media with disulfiram or PDTC was added, and cell numbers were assayed 24-72 hours later. […]
(§3) Proliferation of cultured cells was quantitated using a previously reported calorimetric method based upon metabolic reduction of the soluble yellow tetrazolium dye 3-[4,5-dimethylthiazol]-2yl-2,5-diphenyl tetrazolium bromide (MTT) to its insoluble purple formazan by the action of mitochondrial succinyl dehydrogenase (See, e.g., S. J. Hirst, et al., “Quantifying proliferation of cultured human and rabbit airway smooth muscle in response to serum and platelet derived growth factor,” Am. J. Respir. Cell Mol. Biol. 7:574-581 (1992); R. Dashtaki, et al. R., supra; S. S. Brar, et al., “Requirement for reactive oxygen species in serum-induced and platelet-derived growth factor-induced growth of airway smooth muscle,” J. Biol. Chem. 274:20017-20026 (1999)). […] MTT-containing medium was removed, 0.5 ml dimethylsulfoxide (DMSO) was added to each well, and the absorbance of the solubilized purple formazan dye was measured at 540 nm. […]

[2] = tested on: Small cell lung carcinoma NCI-H82; assay: MTT proliferation assay, small cell lung carcinoma; format: cell-based; settings: Homo sapiens, treatment initially, after 48 hours, 10% FBS, read-out: Mean Percent Inhibition of Growth
Procedure: as §1, §2, §3

Q: For `CCN(CC)C(=S)SSC(=S)N(CC)CC` [Disulfiram, tetraethylthiuram disulfide], which IC50 (M1619 melanoma cells; Homo sapiens, M1619, grown 24 hours, additional 24 hours, no added CuSO4, read-out: 50% inhibitory (IC50) concentration) is on record?
A: 625 nM

Q: And the inhibition at 0.625 µM (M1619 melanoma cells; Homo sapiens, disulfiram 0.625 μM, treatment after 24 hours of growth, read-out: Mean Percent Inhibition of Growth)?
A: 59 ± 4%

Q: What about the inhibition at 1.25 µM (M1619 melanoma cells; Homo sapiens, disulfiram 1.25 μM, treatment after 24 hours of growth, read-out: Mean Percent Inhibition of Growth) of the same compound?
A: 35 ± 4%

Q: What about the inhibition at 2.5 µM (M1619 melanoma cells; Homo sapiens, disulfiram 2.5 μM, treatment after 24 hours of growth, read-out: Mean Percent Inhibition of Growth) of the same compound?
A: 39 ± 3%

Q: What about the inhibition at 5 µM (M1619 melanoma cells; Homo sapiens, disulfiram 5.0 μM, treatment after 24 hours of growth, read-out: Mean Percent Inhibition of Growth) of the same compound?
A: 37 ± 4%

Q: What about the “100% inhibitory (IC100) concentration” value (M1619 melanoma cells; M1619, with 0.2 μM CuSO4 added to medium, grown 24 hours, additional 24 hours) of the same compound?
A: 0.625 µM

Q: And the “growth in vitro of M1619 melanoma” value (M1619 melanoma cells; added at plating, 24 hours)?
A: potent inhibitor of growth

Q: And the “A540 of MTT Formazan” value (M1619 melanoma cells; disulfiram 0.6 μM + carmustine 1 μM, 24 hours)?
A: 0.042 ± 0.003^C

Q: What about the “A540 of MTT Formazan” value (M1619 melanoma cells; disulfiram 0.6 μM + carmustine 10 μM, 24 hours) of the same compound?
A: 0.025 ± 0.002^C

Q: What about the “A540 of MTT Formazan” value (M1619 melanoma cells; disulfiram 0.6 μM + carmustine 100 μM, 24 hours) of the same compound?
A: 0.030 ± 0.023

Q: What about the “A540 of MTT Formazan” value (M1619 melanoma cells; disulfiram 0.6 μM + carmustine 1,000 μM, 24 hours) of the same compound?
A: 0.004 ± 0.000

Q: What about the “A540 of MTT Formazan” value (M1619 melanoma cells; disulfiram 2.5 μM + cisplatin 1 ng/ml, added after 48 hours, additional 24 hours) of the same compound?
A: 1.369 ± 0.033^B

Q: And the “A540 of MTT Formazan” value (M1619 melanoma cells; disulfiram 2.5 μM + cisplatin 10 ng/ml, added after 48 hours, additional 24 hours)?
A: 1.221 ± 0.028

Q: What about the “A540 of MTT Formazan” value (M1619 melanoma cells; disulfiram 2.5 μM + cisplatin 100 ng/ml, added after 48 hours, additional 24 hours) of the same compound?
A: 1.183 ± 0.038^A

Q: And the “A540 of MTT Formazan” value (M1619 melanoma cells; disulfiram 2.5 μM + cisplatin 1,000 ng/ml, added after 48 hours, additional 24 hours)?
A: 0.921 ± 0.027^A

Q: What about the inhibition at 0.625 µM ([1]; disulfiram 0.625 μM) of the same compound?
A: 76 ± 3%

Q: And the inhibition at 1.25 µM ([1]; disulfiram 1.25 μM)?
A: 82 ± 4%

Q: And the inhibition at 2.5 µM ([1]; disulfiram 2.5 μM)?
A: 77 ± 4%

Q: What about the inhibition at 5 µM ([1]; disulfiram 5.0 μM) of the same compound?
A: 78 ± 3%

Q: What about the inhibition at 0.625 µM ([2]; disulfiram 0.625 μM) of the same compound?
A: 68 ± 3%

Q: And the inhibition at 1.25 µM ([2]; disulfiram 1.25 μM)?
A: 76 ± 6%

Q: What about the inhibition at 2.5 µM ([2]; disulfiram 2.5 μM) of the same compound?
A: 76 ± 5%

Q: And the inhibition at 5 µM ([2]; disulfiram 5.0 μM)?
A: 72 ± 3%
